Laboratory results taken from patent US20260041093A1, “Ionic Derivatives Of Aromatic Carboxylic Acid For Use As Plant Stimulants, Method For Stimulating Plants And Use Of These Derivatives For Manufacturing Compositions For Stimulating Plants” (FUNDACJA UNIWERSYTETU IM. ADAMA MICKIEWICZA W POZNANIU, priority 2022, published 2026).
Like-named read-outs stand apart in the source and are kept apart here.

Experiments:
[1] = tested on: powdery mildew fungus; format: in vivo, tomato; details: 80 mg/L, watered twice; 2 weeks after infection
Experimental: Tomato plants, at the stage of the first pair of developed true leaves, were watered twice with a solution of substance 1-32 at a concentration of 80 mg/L, at a weekly interval. The control was tomato plants watered only with water. […] The suspension was prepared from culture on solid medium. Protection against biotic stress was evaluated by comparing the area of leaves affected by infection.

[2] = tested on: Brome Mosaic Virus (BMV); experiment: Protection of barley against Brome Mosaic Virus infection by watering (Examples 28 and 29); format: in vivo; details: 80 mg/L, watered twice; 2 weeks after infection
[3] = tested on: TMV; experiment: Protection of tobacco against TMV infected 3 weeks after the last treatment (Example 27); format: in vivo; details: infected with TMV 3 weeks after the last treatment
Experimental: They proceeded as in Example 24, using substances 1-4 at concentrations of 10, 40 and 80 mg/L for treatment, with treated and control plants divided into 3 batches and their leaves infected with the virus 1, 2 and 3 weeks after the last treatment, respectively. […] A similar effect occurred with spraying.

[4] = tested on: TMV; experiment: Protection of tobacco against TMV, single spray, comparison with BION (Example 26); format: in vivo, Nicotiana tabacum cv. Xanthi; details: sprayed once, infected a week later
Experimental: Tobacco plants (Nicotiana tabacum) cv. Xanthi at the stage of three developed leaves were sprayed once with solutions of substance 1-5 or BION™ at concentrations of 10, 40, 80 mg/L. A week later, they were mechanically infected with TMV by rubbing the leaves with a square soaked in a suspension of purified virus, with a concentration of about 2 μg/ml. The level of protection against the effects of biotic stress was evaluated by comparing the number of necrotic spots caused by TMV on the leaves of plants treated with substances 1-5 and BION™ and control plants.
A reduction in the number of necrotic spots indicates protection from the effects of the biotic agent on the plant.

[5] = tested on: Pseudomonas syringae pv. Tomato (Pst); details: watered twice, Pst 10^5, 2 weeks after infection
Experimental: Tobacco plants at the stage of 3 developed leaves were watered twice, at a weekly interval, with a solution of test substances 1-11 at concentrations of 10, 40, 80 mg/L. The control was tobacco plants watered with water only. One week after the second treatment, a suspension of Pst bacteria at a concentration of 10^5 was spotted into the leaves using an insulin syringe (without a needle). The suspension was prepared from a two-day culture of Pst on solid medium. Protection against biotic stress was evaluated by the proliferation of bacteria in the leaves at the insertion site and the formation of a necrotic spot, compared to the control.
We proceeded as in Example 30, with the effectiveness of protection against biotic stress tested against bacterial cell concentrations raised to about 10^6.

[6] = tested on: powdery mildew fungus; experiment: Protection of tomato against powdery mildew by spraying (Example 35); format: in vivo, Lycopersicon Esculentum Mill tomato; details: 40 mg/l, sprayed twice; 2 weeks after pathogen inoculation
Experimental: […] The control was tomato plants watered only with water. […] The suspension was prepared from culture on solid medium. Protection against biotic stress was evaluated by comparing the area of leaves affected by infection.
Proceeded in the way as described in Example 34, with the difference that plants were sprayed and not watered.

With `C[N+](C)(C)CCO.O=C([O-])c1cc(Br)cc(Br)c1O` the “% reduction in necrotic spots compared to control” value (“% reduction in necrotic spots” for short) [1] was 72% and the “% reduction in necrotic spots” value [2] was 38%.

In the case of `C[N+](C)(C)CCO.O=C([O-])c1cc(F)cc(F)c1O`, the “% reduction in necrotic spots” value [1] is reported as 70% and the “% reduction in necrotic spots” value [2] is reported as 27%.

`C[N+](C)(C)CCO.O=C([O-])c1cc(I)cc(I)c1O` was tested, and the “% reduction in necrotic spots” value [1] was 78% and the “% reduction in necrotic spots” value [2] was 46%.

In the case of “2-bromoethyl(trimethyl)ammonium 3-chlorosalicylate”, the “% reduction in necrotic spots” value [1] is reported as 54% and the “% reduction in necrotic spots” value [2] is reported as 95%.

For “2-chloroethyl(trimethyl)ammonium 3-chlorosalicylate”, the “% reduction in necrotic spots” value [1] was 57% and the “% reduction in necrotic spots” value [2] was 36%.

“2-ethoxyethyl(trimethyl)ammonium 3-chlorosalicylate” was tested, and the “% reduction in necrotic spots” value ([3]; 10 mg/L) was 26%, the “% reduction in necrotic spots” value ([3]; 40 mg/L) was 26% and the “% reduction in necrotic spots” value ([3]; 80 mg/L) was 30%. For the same compound, the “% reduction in necrotic spots” value [1] was 55%.

For “2-fluoroethyl(trimethyl)ammonium 3-chlorosalicylate”, the “% reduction in necrotic spots” value [1] was 36% and the “% reduction in necrotic spots” value [2] was 56%.

For “2-hydroxyethyl(tributyl)ammonium 3-chlorosalicylate”, the “% reduction in necrotic spots” value ([4]; 10 mg/L) was 26%, the “% reduction in necrotic spots” value ([4]; 40 mg/L) was 26% and the “% reduction in necrotic spots” value ([4]; 80 mg/L) was 30%. For the same compound, the “% reduction in necrotic spots” value [1] was 66%.

With “2-hydroxyethyl(tridecyl)ammonium 3-chlorosalicylate” the “% reduction in necrotic spots” value ([4]; 10 mg/L) was 25%, the “% reduction in necrotic spots” value ([4]; 40 mg/L) was 46% and the “% reduction in necrotic spots” value ([4]; 80 mg/L) was 65%. For the same compound, the “% reduction in necrotic spots” value [1] was 64%.

For “2-hydroxyethyl(tridodecyl)ammonium 3-chlorosalicylate”, the “% reduction in necrotic spots” value ([4]; 10 mg/L) was 59%, the “% reduction in necrotic spots” value ([4]; 40 mg/L) was 64% and the “% reduction in necrotic spots” value ([4]; 80 mg/L) was 89%. For the same compound, the “% reduction in necrotic spots” value [1] was 47%.

With “2-hydroxyethyl(triethyl)ammonium 3-chlorosalicylate” the “% reduction in necrotic spots” value ([4]; 10 mg/L) was 15%, the “% reduction in necrotic spots” value ([4]; 40 mg/L) was 26% and the “% reduction in necrotic spots” value ([4]; 80 mg/L) was 37%. For the same compound, the “% reduction in necrotic spots” value [1] was 58%.

In the case of “2-iodoethyl(trimethyl)ammonium 3-chlorosalicylate”, the “% reduction in necrotic spots” value [1] is reported as 47% and the “% reduction in necrotic spots” value [2] is reported as 64%.

In the case of “2-methoxyethyl(trimethyl)ammonium 3-chlorosalicylate”, the “% reduction in necrotic spots” value ([3]; 10 mg/L) is reported as 15%, the “% reduction in necrotic spots” value ([3]; 40 mg/L) is reported as 26% and the “% reduction in necrotic spots” value ([3]; 80 mg/L) is reported as 37%. The “% reduction in necrotic spots” value [1] was 67%.

`CC(=O)Oc1c(Cl)cccc1C(=O)[O-].C[N+](C)(C)CCO` [choline 2-acetoxy-3-chlorobenzoate] was tested, and the “% reduction in necrotic spots” value ([5]; 10 mg/L) was greater than 10%, the “% reduction in necrotic spots” value ([5]; 40 mg/L) was 28% and the “% reduction in necrotic spots” value ([5]; 80 mg/L) was 35%. The “% reduction in necrotic spots” value [1] was 45%.

For `CC(=O)Oc1ccccc1C(=O)[O-].C[N+](C)(C)CCO` [choline 2-acetoxybenzoate], the “% reduction in necrotic spots” value ([5]; 10 mg/L) was 25%, the “% reduction in necrotic spots” value ([5]; 40 mg/L) was 29% and the “% reduction in necrotic spots” value ([5]; 80 mg/L) was 69%. For the same compound, the “% reduction in necrotic spots” value [1] was 52%.

In the case of `CCOc1c(Cl)cccc1C(=O)[O-].C[N+](C)(C)CCO` [choline 2-ethoxy-3-chlorobenzoate], the “% reduction in necrotic spots” value ([5]; 10 mg/L) is reported as 24%, the “% reduction in necrotic spots” value ([5]; 40 mg/L) is reported as 33% and the “% reduction in necrotic spots” value ([5]; 80 mg/L) is reported as 39%. The “% reduction in necrotic spots” value [1] was 43%.

`CCOc1ccccc1C(=O)[O-].C[N+](C)(C)CCO` [choline 2-ethoxybenzoate] was tested, and the “% reduction in necrotic spots” value ([5]; 10 mg/L) was 56%, the “% reduction in necrotic spots” value ([5]; 40 mg/L) was 60% and the “% reduction in necrotic spots” value ([5]; 80 mg/L) was 82%. The “% reduction in necrotic spots” value [1] was 43%.

`COc1c(Cl)cccc1C(=O)[O-].C[N+](C)(C)CCO` [choline 2-methoxy-3-chlorobenzoate] was tested, and the “% reduction in necrotic spots” value ([5]; 10 mg/L) was greater than 10%, the “% reduction in necrotic spots” value ([5]; 40 mg/L) was 25% and the “% reduction in necrotic spots” value ([5]; 80 mg/L) was 39%. The “% reduction in necrotic spots” value [1] was 49%.

In the case of `COc1ccccc1C(=O)[O-].C[N+](C)(C)CCO` [choline 2-methoxybenzoate], the “% reduction in necrotic spots” value ([5]; 10 mg/L) is reported as 54%, the “% reduction in necrotic spots” value ([5]; 40 mg/L) is reported as 68% and the “% reduction in necrotic spots” value ([5]; 80 mg/L) is reported as 67%. For the same compound, the “% reduction in necrotic spots” value [1] was 44%.

For `C[N+](C)(C)CCO.O=C([O-])c1cccc(Br)c1O` [choline 3-bromosalicylate], the “% reduction in necrotic spots” value [1] was 72% and the “% reduction in necrotic spots” value [2] was 21%.

With `C[N+](C)(C)CCO.O=C([O-])c1c(Br)ccc(Cl)c1O` [choline 3-chloro-6-bromosalicylate] the “% reduction in necrotic spots” value ([5]; 10 mg/L) was 24%, the “% reduction in necrotic spots” value ([5]; 40 mg/L) was 29% and the “% reduction in necrotic spots” value ([5]; 80 mg/L) was 40%. For the same compound, the “Reduction in necrotic spots (white patches) compared to control” value [6] was 49%.

In the case of `C[N+](C)(C)CCO.O=C([O-])c1c(F)ccc(Cl)c1O` [choline 3-chloro-6-fluorosalicylate], the “% reduction in necrotic spots” value ([5]; 10 mg/L) is reported as 19%, the “% reduction in necrotic spots” value ([5]; 40 mg/L) is reported as 28% and the “% reduction in necrotic spots” value ([5]; 80 mg/L) is reported as 47%. For the same compound, the “Reduction in necrotic spots (white patches) compared to control” value [6] was 45%.

In the case of `C[N+](C)(C)CCO.O=C([O-])c1c(I)ccc(Cl)c1O` [choline 3-chloro-6-iodosalicylate], the “Reduction in necrotic spots (white patches) compared to control” value [6] is reported as 47%.

With `C[N+](C)(C)CCO.O=C([O-])c1cccc(F)c1O` [choline 3-fluorosalicylate] the “% reduction in necrotic spots” value [1] was 52% and the “% reduction in necrotic spots” value [2] was 56%.

With `C[N+](C)(C)CCO.O=C([O-])c1cccc(I)c1O` [choline 3-iodosalicylate] the “% reduction in necrotic spots” value [1] was 69% and the “% reduction in necrotic spots” value [2] was 77%.

`C[N+](C)(C)CCO.O=C([O-])c1cc(Br)ccc1O` [choline 5-bromosalicylate] was tested, and the “% reduction in necrotic spots” value [1] was 79% and the “% reduction in necrotic spots” value [2] was 69%.

`C[N+](C)(C)CCO.O=C([O-])c1cc(F)ccc1O` [choline 5-fluorosalicylate] was tested, and the “% reduction in necrotic spots” value [1] was 54% and the “% reduction in necrotic spots” value [2] was 88%.

For `C[N+](C)(C)CCO.O=C([O-])c1cc(I)ccc1O` [choline 5-iodosalicylate], the “% reduction in necrotic spots” value [1] was 65% and the “% reduction in necrotic spots” value [2] was 35%.

“ethyl(trimethyl)ammonium 3-chlorosalicylate” was tested, and the “% reduction in necrotic spots” value ([3]; 10 mg/L) was 25%, the “% reduction in necrotic spots” value ([3]; 40 mg/L) was 46% and the “% reduction in necrotic spots” value ([3]; 80 mg/L) was 65%. For the same compound, the “% reduction in necrotic spots” value [1] was 63%.
